Experimental data reported in the kinase profiling compilation of Christmann-Franck et al. (2016).

Tests used:
Test in all cases: KINOMEscan competition binding
Conditions in all cases: compound 10.0 µM
EIF2AK1 (human) = EIF2AK1 (human) (UniProt Q9BQI3)
ROCK1 (human) = ROCK1 (human) (UniProt Q13464)
MAP3K2 (human) = MAP3K2 (human) (UniProt Q9Y2U5)
ERN1 (human) = ERN1 (human) (UniProt O75460)
TIE1 (human) = TIE1 (human) (UniProt P35590)
CDK2 (human) = CDK2 (human) (UniProt P24941)
KIT (human) = KIT (human) (UniProt P10721)
[1] = system: EGFR (human), P00533 [P753S; 747-752 del]
CSNK1A1 (human) = CSNK1A1 (human) (UniProt P48729)
MAP2K7 (human) = MAP2K7 (human) (UniProt O14733)
Chain of MAP2K7 (human) (O14733 whole entry, looked up): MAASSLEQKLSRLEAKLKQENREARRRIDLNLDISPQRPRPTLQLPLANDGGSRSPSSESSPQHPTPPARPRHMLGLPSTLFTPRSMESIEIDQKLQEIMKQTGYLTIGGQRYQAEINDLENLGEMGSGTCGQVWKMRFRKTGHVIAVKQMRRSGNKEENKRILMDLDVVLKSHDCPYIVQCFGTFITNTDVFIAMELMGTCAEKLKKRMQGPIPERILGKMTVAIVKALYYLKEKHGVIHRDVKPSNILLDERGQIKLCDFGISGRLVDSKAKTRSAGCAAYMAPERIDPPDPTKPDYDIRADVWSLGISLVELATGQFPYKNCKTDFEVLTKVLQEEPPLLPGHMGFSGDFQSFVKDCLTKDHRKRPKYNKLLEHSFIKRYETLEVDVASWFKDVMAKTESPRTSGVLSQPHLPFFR

MTOR (human) = MTOR (human) (UniProt P42345)
DYRK2 (human) = DYRK2 (human) (UniProt Q92630)
CDKL1 (human) = CDKL1 (human) (UniProt Q00532)
HIPK3 (human) = HIPK3 (human) (UniProt Q9H422)
SBK1 (human) = SBK1 (human) (UniProt Q52WX2)
Chain of SBK1 (human) (Q52WX2 whole entry, looked up): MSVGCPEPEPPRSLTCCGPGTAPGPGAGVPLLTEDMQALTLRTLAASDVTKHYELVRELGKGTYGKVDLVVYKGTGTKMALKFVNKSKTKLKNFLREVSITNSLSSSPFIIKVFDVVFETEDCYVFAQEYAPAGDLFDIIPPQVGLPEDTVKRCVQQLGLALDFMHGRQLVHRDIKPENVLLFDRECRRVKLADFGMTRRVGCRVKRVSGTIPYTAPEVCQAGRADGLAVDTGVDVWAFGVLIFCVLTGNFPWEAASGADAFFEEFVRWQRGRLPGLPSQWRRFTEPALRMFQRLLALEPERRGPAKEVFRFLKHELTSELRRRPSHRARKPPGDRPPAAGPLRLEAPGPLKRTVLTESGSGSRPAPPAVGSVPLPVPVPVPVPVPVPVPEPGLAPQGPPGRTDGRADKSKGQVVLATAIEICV

MAP3K13 (human) = MAP3K13 (human) (UniProt O43283)
SGK3 (human) = SGK3 (human) (UniProt Q96BR1)
MATK (human) = MATK (human) (UniProt P42679)
[2] = system: FLT3 (human), P36888 [K663Q]
HIPK4 (human) = HIPK4 (human) (UniProt Q8NE63)
PIK3CG (human) = PIK3CG (human) (UniProt P48736)
TBK1 (human) = TBK1 (human) (UniProt Q9UHD2)
Chain of TBK1 (human) (Q9UHD2 whole entry, looked up): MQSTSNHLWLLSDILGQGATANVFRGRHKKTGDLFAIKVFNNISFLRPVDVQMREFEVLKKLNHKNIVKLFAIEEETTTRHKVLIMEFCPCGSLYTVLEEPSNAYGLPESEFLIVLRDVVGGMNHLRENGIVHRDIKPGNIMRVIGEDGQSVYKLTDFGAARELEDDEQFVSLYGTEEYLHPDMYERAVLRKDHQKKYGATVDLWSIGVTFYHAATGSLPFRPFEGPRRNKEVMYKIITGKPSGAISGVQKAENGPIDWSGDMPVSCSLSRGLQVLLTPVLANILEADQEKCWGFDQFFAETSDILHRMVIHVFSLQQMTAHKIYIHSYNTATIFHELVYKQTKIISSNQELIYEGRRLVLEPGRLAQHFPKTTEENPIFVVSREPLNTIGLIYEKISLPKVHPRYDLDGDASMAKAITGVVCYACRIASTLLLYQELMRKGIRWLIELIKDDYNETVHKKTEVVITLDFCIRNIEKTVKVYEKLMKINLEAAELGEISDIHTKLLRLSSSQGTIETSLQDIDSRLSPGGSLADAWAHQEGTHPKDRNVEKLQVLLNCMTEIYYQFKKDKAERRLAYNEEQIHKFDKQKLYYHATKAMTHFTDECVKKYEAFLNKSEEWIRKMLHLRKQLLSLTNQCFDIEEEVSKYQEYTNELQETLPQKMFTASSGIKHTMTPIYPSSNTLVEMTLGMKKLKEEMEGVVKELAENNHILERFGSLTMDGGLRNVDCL

RPS6KB1 (human) = RPS6KB1 (human) (UniProt P23443)
ERBB3 (human) = ERBB3 (human) (UniProt P21860)
CRK2 (P.falciparum) = CRK2 (P.falciparum) (UniProt P61075)
PI4KB (human) = PI4KB (human) (UniProt Q9UBF8)
Chain of PI4KB (human) (Q9UBF8 whole entry, looked up): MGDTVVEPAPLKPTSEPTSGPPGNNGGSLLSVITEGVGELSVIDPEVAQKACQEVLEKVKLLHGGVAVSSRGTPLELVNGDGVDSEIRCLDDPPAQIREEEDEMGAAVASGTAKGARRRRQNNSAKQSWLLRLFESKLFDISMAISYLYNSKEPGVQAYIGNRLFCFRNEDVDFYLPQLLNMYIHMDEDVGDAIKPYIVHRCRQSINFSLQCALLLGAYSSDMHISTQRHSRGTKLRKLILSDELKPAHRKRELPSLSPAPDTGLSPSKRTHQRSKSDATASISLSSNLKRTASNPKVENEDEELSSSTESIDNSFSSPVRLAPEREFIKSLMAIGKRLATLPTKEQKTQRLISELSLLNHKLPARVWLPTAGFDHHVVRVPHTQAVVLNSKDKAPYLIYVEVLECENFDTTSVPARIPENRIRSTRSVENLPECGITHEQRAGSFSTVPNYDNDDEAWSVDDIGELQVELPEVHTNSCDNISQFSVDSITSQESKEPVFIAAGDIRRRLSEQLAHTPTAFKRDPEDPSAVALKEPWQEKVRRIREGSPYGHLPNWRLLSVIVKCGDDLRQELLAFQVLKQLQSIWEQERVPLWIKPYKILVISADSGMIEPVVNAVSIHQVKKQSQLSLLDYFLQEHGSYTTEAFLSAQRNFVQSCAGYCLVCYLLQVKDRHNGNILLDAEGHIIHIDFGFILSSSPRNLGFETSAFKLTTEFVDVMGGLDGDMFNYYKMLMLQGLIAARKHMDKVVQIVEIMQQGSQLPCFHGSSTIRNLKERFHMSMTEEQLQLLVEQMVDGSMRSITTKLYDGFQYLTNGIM

[3] = system: PIK3CA (human), P42336 [I800L]
MAST1 (human) = MAST1 (human) (UniProt Q9Y2H9)
Chain of MAST1 (human) (Q9Y2H9 whole entry, looked up): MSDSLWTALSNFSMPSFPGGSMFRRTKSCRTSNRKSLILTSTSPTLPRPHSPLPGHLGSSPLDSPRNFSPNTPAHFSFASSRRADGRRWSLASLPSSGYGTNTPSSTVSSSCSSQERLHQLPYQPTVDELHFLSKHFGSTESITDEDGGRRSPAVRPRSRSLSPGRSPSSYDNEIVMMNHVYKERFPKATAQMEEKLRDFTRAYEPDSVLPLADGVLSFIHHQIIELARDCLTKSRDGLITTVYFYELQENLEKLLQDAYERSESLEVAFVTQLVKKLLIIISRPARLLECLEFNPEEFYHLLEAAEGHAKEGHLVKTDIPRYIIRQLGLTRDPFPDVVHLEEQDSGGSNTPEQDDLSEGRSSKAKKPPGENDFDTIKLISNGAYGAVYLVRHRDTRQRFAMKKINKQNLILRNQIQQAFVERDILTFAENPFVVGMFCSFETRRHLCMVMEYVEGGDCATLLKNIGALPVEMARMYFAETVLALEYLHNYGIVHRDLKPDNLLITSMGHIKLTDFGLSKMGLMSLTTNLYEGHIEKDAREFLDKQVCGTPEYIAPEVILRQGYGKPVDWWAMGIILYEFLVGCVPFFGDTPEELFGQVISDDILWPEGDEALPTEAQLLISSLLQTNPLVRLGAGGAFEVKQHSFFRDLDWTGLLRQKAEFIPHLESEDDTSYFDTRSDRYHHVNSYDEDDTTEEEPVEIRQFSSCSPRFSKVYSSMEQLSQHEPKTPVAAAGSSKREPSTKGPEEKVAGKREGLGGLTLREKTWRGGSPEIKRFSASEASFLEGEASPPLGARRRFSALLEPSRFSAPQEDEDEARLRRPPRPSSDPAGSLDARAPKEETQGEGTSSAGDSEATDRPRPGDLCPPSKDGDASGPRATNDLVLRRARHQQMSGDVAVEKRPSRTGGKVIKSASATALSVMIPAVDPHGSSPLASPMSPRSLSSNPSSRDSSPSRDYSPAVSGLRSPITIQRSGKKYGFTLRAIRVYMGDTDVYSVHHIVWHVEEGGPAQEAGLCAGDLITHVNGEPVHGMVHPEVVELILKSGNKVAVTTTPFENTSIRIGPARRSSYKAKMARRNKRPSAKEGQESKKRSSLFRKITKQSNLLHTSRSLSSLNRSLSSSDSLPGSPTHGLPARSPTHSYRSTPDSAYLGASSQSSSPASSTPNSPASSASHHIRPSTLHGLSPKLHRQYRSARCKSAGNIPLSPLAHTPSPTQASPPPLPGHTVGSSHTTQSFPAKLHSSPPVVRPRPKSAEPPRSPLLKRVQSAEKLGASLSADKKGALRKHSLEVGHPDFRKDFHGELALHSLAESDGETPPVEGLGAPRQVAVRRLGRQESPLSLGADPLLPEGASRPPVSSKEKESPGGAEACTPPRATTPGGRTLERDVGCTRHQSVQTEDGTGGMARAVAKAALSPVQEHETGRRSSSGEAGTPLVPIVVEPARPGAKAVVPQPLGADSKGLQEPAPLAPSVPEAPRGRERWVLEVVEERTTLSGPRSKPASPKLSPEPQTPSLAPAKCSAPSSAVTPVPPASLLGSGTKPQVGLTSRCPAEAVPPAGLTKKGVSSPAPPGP

[4] = system: PIK3CA (human), P42336 [E545K]
MAP3K15 (human) = MAP3K15 (human) (UniProt Q6ZN16)
[5] = system: EGFR (human), P00533 [746-750 del]
NEK3 (human) = NEK3 (human) (UniProt P51956)
[6] = system: KIT (human), P10721 [V559D/T670I]
NEK11 (human) = NEK11 (human) (UniProt Q8NG66)
OXSR1 (human) = OXSR1 (human) (UniProt O95747)
[7] = system: ABL1 (human), P00519 [E255K]
Chain of ABL1 (human), P00519 [E255K] (P00519 whole entry E255K, looked up): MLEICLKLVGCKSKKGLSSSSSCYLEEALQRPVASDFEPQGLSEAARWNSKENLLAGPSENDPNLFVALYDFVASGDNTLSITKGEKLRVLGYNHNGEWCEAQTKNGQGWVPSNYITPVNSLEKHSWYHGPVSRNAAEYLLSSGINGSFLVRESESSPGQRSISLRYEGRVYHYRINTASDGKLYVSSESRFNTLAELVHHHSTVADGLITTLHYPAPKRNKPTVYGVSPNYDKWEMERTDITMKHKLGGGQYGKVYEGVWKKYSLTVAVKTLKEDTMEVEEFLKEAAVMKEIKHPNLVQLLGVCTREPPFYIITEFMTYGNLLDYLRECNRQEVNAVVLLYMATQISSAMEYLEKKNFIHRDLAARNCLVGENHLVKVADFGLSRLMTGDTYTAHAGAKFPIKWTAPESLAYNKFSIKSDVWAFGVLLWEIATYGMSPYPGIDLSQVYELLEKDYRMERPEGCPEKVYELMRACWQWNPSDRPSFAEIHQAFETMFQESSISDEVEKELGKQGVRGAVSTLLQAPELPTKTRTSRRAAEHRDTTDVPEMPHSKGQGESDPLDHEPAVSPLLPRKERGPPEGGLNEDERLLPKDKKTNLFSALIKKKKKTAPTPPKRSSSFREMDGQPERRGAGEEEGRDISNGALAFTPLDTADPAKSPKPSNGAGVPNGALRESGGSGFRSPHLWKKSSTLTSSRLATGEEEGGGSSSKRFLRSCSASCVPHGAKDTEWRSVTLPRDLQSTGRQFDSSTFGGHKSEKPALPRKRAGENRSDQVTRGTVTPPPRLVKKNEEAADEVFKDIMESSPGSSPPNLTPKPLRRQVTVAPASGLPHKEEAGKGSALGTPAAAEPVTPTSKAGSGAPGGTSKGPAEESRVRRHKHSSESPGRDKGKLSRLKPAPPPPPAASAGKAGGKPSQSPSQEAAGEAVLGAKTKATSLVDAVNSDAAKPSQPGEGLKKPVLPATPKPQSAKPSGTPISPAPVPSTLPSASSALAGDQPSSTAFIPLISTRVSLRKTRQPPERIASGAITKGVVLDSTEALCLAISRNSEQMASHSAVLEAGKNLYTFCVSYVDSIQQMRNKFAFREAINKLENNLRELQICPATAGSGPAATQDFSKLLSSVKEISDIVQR

LRRK2 (human) = LRRK2 (human) (UniProt Q5S007)
GRK7 (human) = GRK7 (human) (UniProt Q8WTQ7)
EPHB6 (human) = EPHB6 (human) (UniProt O15197)

O=C(NC1CC1)c1cccc(-c2ccc3c(NC(=O)C4CC4)n[nH]c3c2)c1
kinase still bound, per cent of control (EIF2AK1 (human)): 100% | kinase still bound, per cent of control (ROCK1 (human)): 57% | kinase still bound, per cent of control (MAP3K2 (human)): 63% | kinase still bound, per cent of control (ERN1 (human)): 100% | kinase still bound, per cent of control (TIE1 (human)): 31% | kinase still bound, per cent of control (CDK2 (human)): 3.4% | kinase still bound, per cent of control (KIT (human)): 37% | kinase still bound, per cent of control [1]: 96% | kinase still bound, per cent of control (CSNK1A1 (human)): 100% | kinase still bound, per cent of control (MAP2K7 (human)): 100% | kinase still bound, per cent of control (MTOR (human)): 100% | kinase still bound, per cent of control (DYRK2 (human)): 36% | kinase still bound, per cent of control (CDKL1 (human)): 58% | kinase still bound, per cent of control (HIPK3 (human)): 62% | kinase still bound, per cent of control (SBK1 (human)): 100% | kinase still bound, per cent of control (MAP3K13 (human)): 64% | kinase still bound, per cent of control (SGK3 (human)): 42% | kinase still bound, per cent of control (MATK (human)): 68% | kinase still bound, per cent of control [2]: 61% | kinase still bound, per cent of control (HIPK4 (human)): 40% | kinase still bound, per cent of control (PIK3CG (human)): 90% | kinase still bound, per cent of control (TBK1 (human)): 61% | kinase still bound, per cent of control (RPS6KB1 (human)): 100% | kinase still bound, per cent of control (ERBB3 (human)): 69% | kinase still bound, per cent of control (CRK2 (P.falciparum)): 100% | kinase still bound, per cent of control (PI4KB (human)): 84% | kinase still bound, per cent of control [3]: 100% | kinase still bound, per cent of control (MAST1 (human)): 94% | kinase still bound, per cent of control [4]: 95% | kinase still bound, per cent of control (MAP3K15 (human)): 100% | kinase still bound, per cent of control [5]: 90% | kinase still bound, per cent of control (NEK3 (human)): 75% | kinase still bound, per cent of control [6]: 43% | kinase still bound, per cent of control (NEK11 (human)): 95% | kinase still bound, per cent of control (OXSR1 (human)): 98% | kinase still bound, per cent of control [7]: 55% | kinase still bound, per cent of control (LRRK2 (human)): 100% | kinase still bound, per cent of control (GRK7 (human)): 84% | kinase still bound, per cent of control (EPHB6 (human)): 1.4%

CCN1CCN(Cc2ccc(Nc3ncc4c(n3)N(C)c3ccccc3C(=O)N4C)cc2C(F)(F)F)CC1
kinase still bound, per cent of control (EIF2AK1 (human)): 100% | kinase still bound, per cent of control (ROCK1 (human)): 94% | kinase still bound, per cent of control (MAP3K2 (human)): 0.55% | kinase still bound, per cent of control (ERN1 (human)): 96% | kinase still bound, per cent of control (TIE1 (human)): 22% | kinase still bound, per cent of control (CDK2 (human)): 68% | kinase still bound, per cent of control (KIT (human)): 57% | kinase still bound, per cent of control [1]: 79% | kinase still bound, per cent of control (CSNK1A1 (human)): 16% | kinase still bound, per cent of control (MAP2K7 (human)): 100% | kinase still bound, per cent of control (MTOR (human)): 39% | kinase still bound, per cent of control (DYRK2 (human)): 97% | kinase still bound, per cent of control (CDKL1 (human)): 98% | kinase still bound, per cent of control (HIPK3 (human)): 76% | kinase still bound, per cent of control (SBK1 (human)): 6.9% | kinase still bound, per cent of control (MAP3K13 (human)): 53% | kinase still bound, per cent of control (SGK3 (human)): 86% | kinase still bound, per cent of control (MATK (human)): 94% | kinase still bound, per cent of control [2]: 62% | kinase still bound, per cent of control (HIPK4 (human)): 100% | kinase still bound, per cent of control (PIK3CG (human)): 0% | kinase still bound, per cent of control (TBK1 (human)): 60% | kinase still bound, per cent of control (RPS6KB1 (human)): 48% | kinase still bound, per cent of control (ERBB3 (human)): 75% | kinase still bound, per cent of control (CRK2 (P.falciparum)): 100% | kinase still bound, per cent of control (PI4KB (human)): 100% | kinase still bound, per cent of control [3]: 12% | kinase still bound, per cent of control (MAST1 (human)): 100% | kinase still bound, per cent of control [4]: 24% | kinase still bound, per cent of control (MAP3K15 (human)): 74% | kinase still bound, per cent of control [5]: 74% | kinase still bound, per cent of control (NEK3 (human)): 100% | kinase still bound, per cent of control [6]: 74% | kinase still bound, per cent of control (NEK11 (human)): 100% | kinase still bound, per cent of control (OXSR1 (human)): 59% | kinase still bound, per cent of control [7]: 0.1% | kinase still bound, per cent of control (LRRK2 (human)): 15% | kinase still bound, per cent of control (GRK7 (human)): 73% | kinase still bound, per cent of control (EPHB6 (human)): 21%

C=CC(=O)Nc1cccc(Nc2nc(N[C@H]3CC[C@H](N(C)C)CC3)nc3c2ncn3C(C)C)c1
kinase still bound, per cent of control (EIF2AK1 (human)): 100% | kinase still bound, per cent of control (ROCK1 (human)): 16% | kinase still bound, per cent of control (MAP3K2 (human)): 0.2% | kinase still bound, per cent of control (ERN1 (human)): 96% | kinase still bound, per cent of control (TIE1 (human)): 86% | kinase still bound, per cent of control (CDK2 (human)): 100% | kinase still bound, per cent of control (KIT (human)): 52% | kinase still bound, per cent of control [1]: 90% | kinase still bound, per cent of control (CSNK1A1 (human)): 0.65% | kinase still bound, per cent of control (MAP2K7 (human)): 100% | kinase still bound, per cent of control (MTOR (human)): 100% | kinase still bound, per cent of control (DYRK2 (human)): 58% | kinase still bound, per cent of control (CDKL1 (human)): 100% | kinase still bound, per cent of control (HIPK3 (human)): 26% | kinase still bound, per cent of control (SBK1 (human)): 20% | kinase still bound, per cent of control (MAP3K13 (human)): 79% | kinase still bound, per cent of control (SGK3 (human)): 85% | kinase still bound, per cent of control (MATK (human)): 40% | kinase still bound, per cent of control [2]: 1.2% | kinase still bound, per cent of control (HIPK4 (human)): 63% | kinase still bound, per cent of control (PIK3CG (human)): 100% | kinase still bound, per cent of control (TBK1 (human)): 84% | kinase still bound, per cent of control (RPS6KB1 (human)): 87% | kinase still bound, per cent of control (ERBB3 (human)): 94% | kinase still bound, per cent of control (CRK2 (P.falciparum)): 100% | kinase still bound, per cent of control (PI4KB (human)): 100% | kinase still bound, per cent of control [3]: 100% | kinase still bound, per cent of control (MAST1 (human)): 83% | kinase still bound, per cent of control [4]: 100% | kinase still bound, per cent of control (MAP3K15 (human)): 66% | kinase still bound, per cent of control [5]: 88% | kinase still bound, per cent of control (NEK3 (human)): 60% | kinase still bound, per cent of control [6]: 86% | kinase still bound, per cent of control (NEK11 (human)): 54% | kinase still bound, per cent of control (OXSR1 (human)): 33% | kinase still bound, per cent of control [7]: 70% | kinase still bound, per cent of control (LRRK2 (human)): 61% | kinase still bound, per cent of control (GRK7 (human)): 8.7% | kinase still bound, per cent of control (EPHB6 (human)): 74%
